This note sets out measurements from patent US9200269B2, “β-glucuronidase inhibitor” (priority 2007, dated 2015).

The structures appear in SMILES notation.

The target of assay [1] is T1, β-glucuronidase Type VII-A derived from Escherichia coli (Escherichia coli, UniProt P05804).
T1 construct: purchased Sigma-Aldrich Corporation
The assay is described as follows: Inhibition of β-glucuronidase activity (PNPG substrate, absorbance at 400 nm). Conditions: 1.6 units/mL enzyme, 37° C., 2 hours, pH 6.8. The format is biochemical. The method, then: 100 μL of a 2 mM PNPG aqueous solution, 40 μL of a 0.5 M phosphate buffer (pH 6.8), 38 μL of ion exchanged water and 2 μL of a 10 or 1 wt % dipropylene glycol (DPG) solution of various compounds or plant extracts were mixed in a bottle γ-ray sterilized in advance, and subsequently 20 μL of a β-glucuronidase aqueous solution adjusted to 16 units/mL was added, in order to allow the enzyme to react in a thermostat bath at 37° C. for 2 hours. Further, in the case of some of compounds, in addition to the above steps, the same experiment was performed using a 0.1 wt % DPG solution as well. As a result, the concentrations of the test compounds and plant extracts in the reaction solution were adjusted to 0.1, 0.01 and 0.001 wt %, respectively. Further, a product prepared by adding DPG in place of the above-mentioned compounds and plant extracts was used as a control, and a product prepared by adding ion exchanged water in place of an enzyme solution was used as a blank for each sample and control, and the respective products were allowed to react for 2 hours in the same manner. It should be noted that the plant extract sample was used as a solvent extract.
The above-mentioned reaction solution was diluted with a 0.2 M glycine buffer (pH 10.4) and measured for its absorbance at a wavelength of 400 nm. The relative activity inhibition rate of a β-glucuronidase was determined by using the obtained measurement value in accordance with the following equation. Absorbance change of control=Absorbance of control−Absorbance of blank for each control Absorbance change of sample=Absorbance of sample−Absorbance of blank for each sample Activity inhibition rate (%)=[(Absorbance change of control−Absorbance change of sample)/Absorbance change of control]×100

The next assay has as its target T2, β-glucuronidase (Escherichia coli, UniProt P05804).
T2 construct: purchased Sigma-Aldrich Corporation
The assay is described as follows: Suppression of generation of urine odor in enzyme-added urine, sensory evaluation. Conditions: 0.01 wt %; human urine plus enzyme, 25° C., 2 hours; six panelists. As to the method:
Sensory evaluation of odor was performed by six panelists, the evaluation was based on a six-level odor intensity indication method in which the odor intensity was indicated with an evaluation score of 0 to 5. In the evaluation score, “0” indicates no odor, “1” indicates odor which can be slightly perceived (detection threshold), “2” indicates odor which can be perceived to be urine odor but is weak (perception threshold), “3” indicates odor which can be easily perceived to be urine odor, “4” indicates strong urine odor, and “5” indicates extreme urine odor. The odor intensity was determined at an interval of 0.5.
360 μL of a human urine sample (a mixture of urine from five humans), which had been subjected to a microbe-removing operation with a 0.2-μm filter immediately after the collection, and […] of a 10 wt % 8-cyclohexadecen-1-one DPG solution were added to a bottle γ-ray sterilized in advance, and subsequently 40 μL of a β-glucuronidase aqueous solution adjusted to 20 units/mL was added and mixed. The mixture was incubated in a thermostat bath at 25° C. and allowed to react for 2 hours. The concentration of 8-cyclohexadecen-1-one in the reaction solution was 0.01 wt %. […]

T1 sequence (P05804 whole entry): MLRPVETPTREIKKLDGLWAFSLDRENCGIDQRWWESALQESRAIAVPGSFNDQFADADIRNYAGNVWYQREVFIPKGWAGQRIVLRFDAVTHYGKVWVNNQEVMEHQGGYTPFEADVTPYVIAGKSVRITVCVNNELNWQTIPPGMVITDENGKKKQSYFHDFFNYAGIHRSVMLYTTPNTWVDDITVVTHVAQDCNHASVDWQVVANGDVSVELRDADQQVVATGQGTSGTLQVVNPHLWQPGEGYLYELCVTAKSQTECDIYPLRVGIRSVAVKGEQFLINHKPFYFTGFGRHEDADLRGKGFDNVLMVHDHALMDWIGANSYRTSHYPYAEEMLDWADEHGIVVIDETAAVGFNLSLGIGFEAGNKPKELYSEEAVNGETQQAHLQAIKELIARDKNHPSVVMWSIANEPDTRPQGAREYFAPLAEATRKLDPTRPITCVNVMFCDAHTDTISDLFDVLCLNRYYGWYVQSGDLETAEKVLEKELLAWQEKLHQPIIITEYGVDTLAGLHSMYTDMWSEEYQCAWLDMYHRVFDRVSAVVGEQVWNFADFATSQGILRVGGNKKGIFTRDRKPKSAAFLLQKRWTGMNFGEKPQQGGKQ
T2 sequence (P05804 whole entry): as above

As for `O=C1CCCCCCC=CCCCCCCC1` [8-Cyclohexadecen-1-one, 8-cyclohexadecen-1-one], the “Inhibition rate (%) Concentration 0.001%” value in assay [1] (0.001 wt % in reaction solution) is 95.8%. In assay [1] (0.01 wt % in reaction solution, read-out: Inhibition rate (%) Concentration 0.01%), the inhibition at 0.01 wt % was 99.9%. In addition, in assay [1] (0.1 wt % in reaction solution, read-out: Inhibition rate (%) Concentration 0.1%), the inhibition at 0.1 wt % came out at 100%. The “Generation of urine odor, sensory evaluation (result in words, FIG. 5)” value at β-glucuronidase is “sensuously suppressed the generation of urine odor”.
